# Laboratory results reported in patent publication US9624170B2, “4-(piperrazin-1-yl)-pyrrolidin-2-one compounds as monoacylglycerol lipase (MAGL) inhibitors” (TAKEDA PHARMACEUTICAL COMPANY LIMITED, priority 2013, dated 2017).
# Biological target: T1, human MAGL (His-hMAGL) (Homo sapiens, UniProt Q99685)
# T1 construct: made in house; host or cells: Escherichia coli BL21(DE3)
# T1 sequence (Q99685 1-303): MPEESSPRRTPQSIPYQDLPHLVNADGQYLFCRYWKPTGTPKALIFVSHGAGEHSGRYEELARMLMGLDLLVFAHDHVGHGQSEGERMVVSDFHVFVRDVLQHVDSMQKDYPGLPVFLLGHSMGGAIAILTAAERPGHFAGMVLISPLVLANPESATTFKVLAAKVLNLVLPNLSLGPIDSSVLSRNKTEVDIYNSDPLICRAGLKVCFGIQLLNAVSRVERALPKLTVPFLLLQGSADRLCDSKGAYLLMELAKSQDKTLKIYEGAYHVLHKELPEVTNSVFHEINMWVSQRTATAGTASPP
# Experiment: Measurement of MAGL inhibitory activity by mass spectrometry
# Type: biochemical
# Conditions: MAGL inhibitory rate, test compound 10 μM, His-hMAGL, substrate 2-arachidonylglycerol, RapidFire-mass spectrometry
# In short: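 His-tagged human MAGL was reacted with 150 μM 2-arachidonylglycerol substrate (stock, added by 5 μL) for 10 min at room temperature, then stopped with formic acid. Arachidonic acid product was quantified by RapidFire–triple-quadrupole MS in negative SRM mode, corrected by arachidonic acid-d8, and converted to percent inhibition.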
row,Compound,inhibition at 10 µM
1,"COc1ccccc1-c1cc(N2CC(N3CCN(C(=O)c4nccs4)CC3)CC2=O)cc2cc[nH]c12 (stereo not shown) [Example 354, 1-(7-(2-methoxyphenyl)-1H-indol-5-yl)-4-(4-(1,3-thiazol-2-ylcarbonyl)piperazin-1-yl)pyrrolidin-2-one]",101%
2,"COc1ccccc1-c1cc(N2CC(N3CCN(C(=O)c4nccs4)CC3)CC2=O)cc2cn[nH]c12 (stereo not shown) [Example 355, 1-(7-(2-methoxyphenyl)-1H-indazol-5-yl)-4-(4-(1,3-thiazol-2-ylcarbonyl)piperazin-1-yl)pyrrolidin-2-one]",98%
3,"Cc1cc(Cl)ccc1-c1cccc(N2CC(N3CCN(C(=O)c4nccs4)CC3)CC2=O)c1 (stereo not shown) [Example 356, 1-(4′-chloro-2′-methylbiphenyl-3-yl)-4-(4-(1,3-thiazol-2-ylcarbonyl)piperazin-1-yl)pyrrolidin-2-one]",98%
4,"Cc1cc(Cl)ccc1-c1cc(F)cc(N2CC(N3CCN(C(=O)c4nccs4)CC3)CC2=O)c1 (stereo not shown) [Example 357, 1-(4′-chloro-5-fluoro-2′-methylbiphenyl-3-yl)-4-(4-(1,3-thiazol-2-ylcarbonyl)piperazin-1-yl)pyrrolidin-2-one]",101%
5,"Cc1cnc(-n2ccc3cc(N4CC(N5CCN(C(=O)c6nccs6)CC5)CC4=O)ccc32)nc1 (stereo not shown) [Example 358, 1-(1-(5-methylpyrimidin-2-yl)-1H-indol-5-yl)-4-(4-(1,3-thiazol-2-ylcarbonyl)piperazin-1-yl)pyrrolidin-2-one]",102%
6,"C[C@@H]1CN(C(=O)c2nccs2)CCN1C1CC(=O)N(c2ccc3c(ccn3-c3ccc(F)cc3)c2)C1 (stereo partly drawn) [Example 359, 1-(1-(4-fluorophenyl)-1H-indol-5-yl)-4-((2R)-2-methyl-4-(1,3-thiazol-2-ylcarbonyl)piperazin-1-yl)pyrrolidin-2-one]",96%
7,"O=C1CC(N2CCN(c3ncccn3)CC2)CN1c1ccc2c(ccn2-c2ccnc(C(F)(F)F)c2)c1 (stereo not shown) [Example 361, 4-(4-(pyrimidin-2-yl)piperazin-1-yl)-1-(1-(2-(trifluoromethyl)pyridin-4-yl)-1H-indol-5-yl)pyrrolidin-2-one]",92%
8,"Cc1nccnc1-c1cccc(N2CC(N3CCN(C(=O)c4nccs4)CC3)CC2=O)c1 (stereo not shown) [Example 362, 1-(3-(3-methylpyrazin-2-yl)phenyl)-4-(4-(1,3-thiazol-2-ylcarbonyl)piperazin-1-yl)pyrrolidin-2-one]",92%
9,"C[C@H]1CN(C2CC(=O)N(c3ccc4c(ccn4-c4ccc(F)cc4)c3)C2)CCN1C(=O)c1nccs1 (stereo partly drawn) [Example 363, 1-(1-(4-fluorophenyl)-1H-indol-5-yl)-4-((3S)-3-methyl-4-(1,3-thiazol-2-ylcarbonyl)piperazin-1-yl)pyrrolidin-2-one]",96%
10,"O=C(c1nccs1)N1CCN(C2CC(=O)N(c3ccc4c(c3)CCN4c3ccnc(C(F)(F)F)c3)C2)CC1 (stereo not shown) [Example 365, 4-(4-(1,3-thiazol-2-ylcarbonyl)piperazin-1-yl)-1-(1-(2-(trifluoromethyl)pyridin-4-yl)-2,3-dihydro-1H-indol-5-yl)pyrrolidin-2-one]",98%
11,"O=C(c1nccs1)N1CCN(C2CC(=O)N(c3sc4cc(F)ccc4c3Cl)C2)CC1 (stereo not shown) [Example 366, 1-(3-Chloro-6-fluoro-1-benzothiophen-2-yl)-4-(4-(1,3-thiazol-2-ylcarbonyl)piperazin-1-yl)pyrrolidin-2-one]",100%
12,"Cc1ccc(-c2cccc(N3CC(N4CCN(C(=O)c5nccs5)CC4)CC3=O)c2)c(C)n1 (stereo not shown) [Example 368, 1-(3-(2,6-dimethylpyridin-3-yl)phenyl)-4-(4-(1,3-thiazol-2-ylcarbonyl)piperazin-1-yl)pyrrolidin-2-one]",97%
13,"O=C(c1nccs1)N1CCN(C2CC(=O)N(c3cccc(-c4cnccc4Cl)c3)C2)CC1 (stereo not shown) [Example 370, 1-(3-(4-chloropyridin-3-yl)phenyl)-4-(4-(1,3-thiazol-2-ylcarbonyl)piperazin-1-yl)pyrrolidin-2-one]",101%
